From article PMC6272662, “Trypanocidal Activity of Long Chain Diamines and Aminoalcohols” (Molecules, 2015)
Read-outs that look alike come from different tables or passages of the source.

Tests used:
[1] = system: Chagas disease; parameters: method as in PMID 22614520, PMID 22760123, PMID 22686518, PMID 19967227; details: ref [6],[7],[8],[9], cited from earlier work
[2] = in vitro; details: mouse
Procedure: (§1) The mouse cell lines J774.2 macrophages and NCTC clone 929 fibroblasts were used and cultured in plastic culture flasks. J774.2 and NCTC-929 cells were grown using DMEM and BME without phenol-red, respectively. Both media were supplemented with 10% heat inactivated fetal calf serum, 2 mM glutamine, 100 U/mL penicillin and 100 μg/mL streptomycin. Cell cultures were maintained at 37 °C in a humidified atmosphere containing 5% CO2 and subpassaged once a week. Cells in the pre-confluence phase were harvested with an EDTA-trypsin solution for the experiments.
(§2) Unspecific cytotoxicity was evaluated over phagocytic macrophages J774.2 cell line. To study cytotoxicity on J774.2 cells, 200 μL of a suspension of 2 × 10^5 macrophages/mL were added to 96 well flat-bottom microplates (Sigma). Cells were allowed to attach for 24 h at 37 °C and then exposed to the compounds for 72 h at the same concentrations as used for drug screening. […] Each concentration was assayed by triplicate, in independent experiments. Cytotoxicity was assessed by the Trypan Blue and XTT techniques and LC50 was calculated as described above.

[3] = system: Trypanosoma cruzi epimastigotes strain JEM (MHOM/CO/05/JEM); assay: Epimastigote susceptibility assay, JEM strain (Trypan Blue and XTT); type: cell-based; details: for JEM Strain SI (Selectivity Index: LC50-macrophages/IC50-epimastigotes): JEM strain epimastigotes vs J774.2 macrophages; for IC50 / JEM Strain PNFX (potency relative to NFX = IC50-NFX/IC50-compound; also called NI): epimastigotes, JEM strain; for IC50: 72 h at 28 °C, 0.1-70.0 µM, mean ± SEM
Procedure: (§3) For in vitro studies, the strains MHOM/CO/04/MG (MG), MHOM/CO/05/JEM (JEM) and CL Brener strain clone B5 (CL-B5) were used. The MG and JEM strains correspond to Group I and Haplotype Ia isolates from two Colombian patients in the acute phase, and CL-B5 is a strain stably transfected with Escherichia coli β-galactosidase gene (lacZ). Epimastigotes were grown in plastic culture flasks at 28 °C, in axenic liver-infusion tryptose (LIT) growth medium, supplemented with 10% heat inactivated (30 min at 56 °C) foetal calf serum (FCS; Sigma), […] hemin (Sigma), and 10 µg/mL gentamycin (Sigma) and harvested in the exponential phase for conducting the experiments. Cultures were continuously maintained in logarithmic growth by weekly passages.
(§4) Three different strains of T. cruzi were used for the primary screening on epimastigote forms. For strains MG and JEM, the screening assay was performed with approximately 1 × 10^5 epimastigotes in logaritmic growth phase in 200 μL of supplemented LIT medium per well in 96-well flat bottoned plates (Costar, Corning, Cornig, NY, USA). […] The plates were incubated for 72 h at 28 °C and all experimental conditions were evaluated in triplicate in three independent experiments. The epimastigote growth inhibition was microscopically determined by the Trypan Blue dye exclusion assay and XTT (2,3-bis-(2-methoxy-4-nitro-5-sulfophenyl)-5-[(phenylamino)carbonyl]-2H-tetrazolium hydroxide). Regarding the first method, an aliquot from every culture was suspended in 0.4% trypan blue solution for 5 min and cell viability was determined under microscope by counting live parasites in each condition in a Neubauer chamber. Anti-epimastigote activity percentage was calculated as (Parasite counts in control wells-Parasite counts in experimental wells) × 100/Parasite counts in control wells. Trypanocidal activity over both strains was also measured adding 50 μL of XTT solution per well to obtain a final concentration of 0.3 mg/mL. The plate was re-incubated 24 h in the dark at 37 °C and orange formazan solution formed, was spectrophotometrically quantified at 450 nm with a 630 nm reference filter, using an Ear400FT ELISA reader.
(§5) Furthermore the Selectivity Index (SI = mammalian cell LC50/epimastigote IC50) for each compound was calculated to compare the antiprotozoal activity with its respective mammalian cell cytotoxicity.

[4] = system: Trypanosoma cruzi epimastigotes strain MG (MHOM/CO/04/MG); assay: Epimastigote susceptibility assay, MG strain (Trypan Blue and XTT); type: cell-based; details: for MG Strain SI (Selectivity Index: LC50-macrophages/IC50-epimastigotes): MG strain epimastigotes vs J774.2 macrophages; for IC50 / MG Strain PNFX (potency relative to NFX = IC50-NFX/IC50-compound; also called NI): MG strain; for IC50: 72 h at 28 °C, 0.1-70.0 µM, mean ± SEM
Procedure: as §3, §4, §5

[5] = system: J774.2 macrophages; assay: in vitro; details: macrophages LC50 relative to NFX
Procedure: as §1, §2

[6] = Trypanosoma cruzi, 72 h, epimastigotes

Structure (SMILES) | average cure rate ([1]; acute cases of Chagas disease) | mild to moderate dermatitis ([1]; adults) | average cure rate ([1]; chronic cases of Chagas disease) | CC50 at 72 h [2] | JEM Strain SI (Selectivity Index: LC50-macrophages/IC50-epimastigotes) [3] | IC50 ([3]; Trypanosoma cruzi, 72 h) | JEM Strain PNFX (potency relative to NFX = IC50-NFX/IC50-compound; also called NI) [3] | MG Strain SI (Selectivity Index: LC50-macrophages/IC50-epimastigotes) [4] | IC50 [4, 6] | MG Strain PNFX (potency relative to NFX = IC50-NFX/IC50-compound; also called NI) ([4]; epimastigotes) | IC50 [3] | IC50 ([4]; epimastigotes) | times greater activity on the MG strain than the JEM strain ([4]; epimastigotes, MG vs JEM IC50) | times less toxic than NFX [5]
O=C(Cn1ccnc1[N+](=O)[O-])NCc1ccccc1 [Bz, benznidazole] | ~80% | up to 30% | less than 20% |  |  |  |  |  |  |  |  |  |  | 
CCCCCCCCCCC(N)CO (stereo not shown) [Compound 1] |  |  |  | 14 ± 0.9 µM | 0.4 | 33 ± 1.7 µM | 0.4 | 1.0 | 14.5 ± 3.15 µM | 1.5 |  |  |  | 
CCCCCCCCCCCCCCCCC(N)CO (stereo not shown) [Compound 3] |  |  |  | 3 ± 0.24 µM | 0.3 | 9.9 ± 1.65 µM | 1.5 | 0.1 | 46.2 ± 2.5 µM | 0.5 |  |  |  | 
CCCCCCCCCCC(CO)NCCCCCC (stereo not shown) [Compound 4] |  |  |  | 36.1 ± 2.3 µM | 1.0 | 37.2 ± 1.25 µM | 0.4 | 1.7 | 21.1 ± 1.25 µM | 1.0 |  |  |  | 
CCCCCCCCCCCCCCC(CO)NCCCCCC (stereo not shown) [Compound 7] |  |  |  | 8.2 ± 1.55 µM |  | > 70 µM |  | 1.3 | 6 µM | 3.5 | > 70 µM | 6.1 ± 0.15 µM | 11 | 
CCCCCCCCCCCCCCCCC(CO)NCCCCCC (stereo not shown) [Compound 8] |  |  |  | 26 ± 0.2 µM |  | > 70 µM |  |  | > 70 µM |  |  |  |  | 
CCCCCCCCCCC(CO)N(CCCC)CCCC (stereo not shown) [Compound 9] |  |  |  | 63.7 ± 0.73 µM | 1.3 | 50.5 ± 0.7 µM | 0.3 | 1.6 | 39.2 ± 0.2 µM | 0.5 |  |  |  | 1.3
CCCCCCCCCCCCCCC(CO)N(CC)CC (stereo not shown) [Compound 10] |  |  |  | 5.6 ± 0.27 µM |  | > 70 µM |  |  | > 70 µM |  |  |  |  | 
CCCCCCCCCCCCCCCCC(CO)N(CCCC)CCCC (stereo not shown) [Compound 11] |  |  |  |  |  | 50.3 ± 0.1 µM | 0.3 |  | > 70 µM |  |  |  |  | 
CCCCCCCCCCCCCCC(N)COCc1ccccc1 (stereo not shown) [Compound 12] |  |  |  | 27.7 ± 0.1 µM | 1.0 | 28.8 ± 1.2 µM | 0.5 | 0.8 | 34.4 ± 1.8 µM | 0.6 |  |  |  | 
CCCCCCCCCCCCCCC(COCc1ccccc1)NCCCC (stereo not shown) [Compound 13] |  |  |  |  |  | > 70 µM |  |  | > 70 µM |  |  |  |  | 
CCCCCCCCCCCCCCCCC(CN)NC(=O)OC(C)(C)C (stereo not shown) [Compound 16] |  |  |  | 24.1 ± 0.2 µM | 3.6 | 6.7 ± 2.1 µM | 2.2 | 1.7 | 13.9 ± 1 µM | 1.5 |  |  |  | 
CCCCCCCCCCCCCCC(CNCCCCCC)NC(=O)OC(C)(C)C (stereo not shown) [Compound 17] |  |  |  | 4.2 ± 0.05 µM | 0.1 | 30.6 ± 0.65 µM | 0.5 | 0.2 | 26.7 ± 0.25 µM | 0.8 |  |  |  | 
CCCCCCCCCCCCCCC(CN(CCCCCC)CCCCCC)NC(=O)OC(C)(C)C (stereo not shown) [Compound 18] |  |  |  |  |  | > 70 µM |  |  | > 70 µM |  | > 70 µM | > 70 µM |  | 
CCCCCCCCCCCCCCC(N)CN (stereo not shown) [Compound 19] |  |  |  | 78.1 ± 0.85 µM | 2.9 | 26.6 ± 0.7 µM | 0.6 | 4.1 | 19.2 ± 2.9 µM | 1.1 |  |  |  | 
CCCCCCCCCCCCCCC(N)CNCCCCCC (stereo not shown) [Compound 20] |  |  |  | 5 ± 0.1 µM | 0.1 | > 70 µM | 0.3 | 0.2 | 42.2 µM | 0.6 | 48.8 ± 1.05 µM | 32.9 ± 1.25 µM |  | 
CCCCCCCCCCCCCCCCC(N)CN(CC)CC (stereo not shown) [Compound 21] |  |  |  | 9.3 ± 0.5 µM |  | > 70 µM |  | 0.2 | 42.2 ± 1.4 µM | 0.5 |  |  |  | 
